Test results reported in patent US20240180883A1, “TREATMENT OF MIGRAINE” (Allergan Pharmaceuticals International Limited, priority 2020, published 2024).

How the values were obtained:
[1] = cited from earlier work; for liver enzyme levels: clinical trials
Study B: adverse events = conditions: Treatment B: rifampin 600 mg once daily for 5 days, fasted

Q: For `NCCCC[C@H](NC(=O)[C@@H](Cc1cc(Br)c(O)c(Br)c1)NC(=O)N1CCC(N2Cc3ccccc3NC2=O)CC1)C(=O)N1CCN(c2ccncc2)CC1` [olcegepant], which “efficacy in the acute treatment of migraine” value ([1]; IV formulation) is on record?
A: efficacious in the acute treatment of migraine

Q: And the oral bioavailability ([1]; human, in vivo, po)?
A: not orally bioavailable

Q: With `CO[C@H]1/C=C/O[C@@]2(C)Oc3c(C)c(O)c4c(O)c(c(/C=N/N5CCN(C)CC5)c(O)c4c3C2=O)NC(=O)/C(C)=C\C=C\[C@H](C)[C@H](O)[C@@H](C)[C@@H](O)[C@@H](C)[C@H](OC(C)=O)[C@@H]1C` [rifampin, reference compound] as the compound, how does the “AEs leading to discontinuation” value (Study B: adverse events) read?
A: 0 n (%)

Q: What about the “Any AE” value (Study B: adverse events) of the same compound?
A: 1 (3.3) n (%)

Q: What about the Deaths (Study B: adverse events) of the same compound?
A: 0 n (%)

Q: What about the “Dry Mouth” value (Study B: adverse events) of the same compound?
A: 0 n (%)

Q: And the Flatulence (Study B: adverse events)?
A: 0 n (%)

Q: What about the “Gastrointestinal Disorders” value (Study B: adverse events) of the same compound?
A: 0 n (%)

Q: And the Headache (Study B: adverse events)?
A: 1 (3.3) n (%)

Q: And the Nausea (Study B: adverse events)?
A: 0 n (%)

Q: And the “Nervous System Disorders” value (Study B: adverse events)?
A: 1 (3.3) n (%)

Q: What about the SAEs (Study B: adverse events) of the same compound?
A: 0 n (%)

Q: And the TEAEs (Study B: adverse events)?
A: 1 (3.3) n (%)

Q: And the “Treatment related TEAEs” value (Study B: adverse events)?
A: 1 (3.3) n (%)

Q: With `O=C(N[C@@H]1CC[C@@H](c2cccc(F)c2F)CN(CC(F)(F)F)C1=O)N1CCC(n2c(=O)[nH]c3ncccc32)CC1` [telcagepant] as the compound, how does the liver enzyme levels [1] read?
A: elevated liver enzyme levels were observed

Q: With `O=C(CN1C(=O)C2(CCCC2)NC[C@H]1c1cc(F)cc(F)c1)Nc1ccc2c(c1)C[C@@]1(C2)C(=O)Nc2ncccc21` [MK-3207] as the compound, how does the liver enzyme levels [1] read?
A: elevated liver enzyme levels were observed
